#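 Growth conditions: 96-well plates. Treatment: test compound, 48 hours, 5 concentrations. Analysis: linear interpolation between bracketing concentrations; unreached endpoints set to highest concentration. TGI: concentration producing complete growth inhibition.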
# Experiments:
# Assay in all cases: inhibition of tumour cell growth, NCI panel, 48 h
# [1] = test system: CAKI-1 renal
# [2] = test system: COLO 205 colon
# [3] = test system: HCT-116 colon
# [4] = test system: MDA-MB-435
# [5] = test system: OVCAR-3 ovarian
# [6] = test system: SF-295 CNS
# [7] = test system: SK-MEL-2 melanoma
# [8] = test system: SN12C renal
# [9] = test system: SR leukemia
# [10] = test system: MALME-3M melanoma
SMILES,TGI [1] [µM],TGI [2] [µM],TGI [3] [µM],TGI [4] [µM],TGI [5] [µM],TGI [6] [µM],TGI [7] [µM],TGI [8] [µM],TGI [9] [µM],TGI [10] [µM]
CCC1(c2ccc(OC)c(OC)c2)CCN2C(=O)C(O)CC21 (stereo not drawn),> 100,> 100,> 100,> 100,> 100,> 100,> 100,> 100,> 100,–
CO[C@H](C)[C@](O)(C(=O)OCC1=CCN2CC[C@@H](O)[C@H]12)C(C)C,> 100,> 100,> 100,> 100,> 100,> 100,> 100,> 100,> 100,–
CN(C)CN1C(=O)/C(=N\n2c(-c3ccncc3)n[nH]c2=S)c2ccccc21,> 100,> 100,> 100,30.2,> 100,> 100,50.5,> 100,–,> 100
O=C(O)Cn1c[n+](NC(=O)Cc2ccccc2)cn1,> 10,> 10,> 10,> 10,> 10,> 10,–,> 10,> 10,> 10
CC1=CC(O)CC(C)(C)C1/C=C/C(C)=C/C=C/C(C)=C/C=C/C=C(C)/C=C/C=C(C)/C=C/C1=C(C)CC(O)CC1(C)C (stereo not drawn),51.4,38,30,33.9,32.8,58.4,68.8,–,> 100,29
O=C1c2cccnc2C(=O)c2c1nc1ccccc1c2-c1ccc2c3c(nc4ccccc42)C(=O)c2cccnc2-c13,10,5.68,1.73,5.58,–,7.68,14.1,4.06,0.34,4.54
Oc1ccc(C[C@@H]2CN[C@H](Cc3ccc(O)c(Br)c3)CN2)cc1,> 100,> 100,> 100,> 100,> 100,> 100,> 100,> 100,> 100,–
CCOC(=O)C(NC(=O)CC)(Nc1ccccc1F)C(F)(F)F (stereo not drawn),> 100,> 100,> 100,> 100,> 100,> 100,> 100,> 100,> 100,–
O=C(/C=C/CC(O)(c1ccccc1)c1ccccc1)Nc1ccccc1Cl,> 100,> 100,> 100,–,> 100,> 100,> 100,> 100,> 100,> 100
CCc1nc2c([nH]1)C(=O)c1ccccc1C2=O,> 100,–,80.6,–,61.7,> 100,> 100,> 100,> 100,49.5
CC(C)(C)[Si](C)(C)OC1CCOC1(O)c1ccccn1 (stereo not drawn),> 100,> 100,> 100,> 100,> 100,> 100,> 100,> 100,–,> 100

# From PubChem BioAssay (NCI)
